Source: patent US8586307B2, “Methods for diagnosing epigenetic, transgenerational effects of environmental toxicants on mammalian germ-lines and treating associated diseases” (priority 2005, dated 2013)
“And” between values parts separate entries of the source, which are not always exact repeats. Equal entries are not always repeated.

Assays:
[1] = test system: sperm DNA; assay: Bisulfite sequencing of sperm DNA; assay type: in vivo, rat
Experimental: Bisulfite Sequencing: Genomic DNA was isolated from F1 and F4 sperm samples using the DNeasy Tissue Kit (Qiagen, Valencia, Calif.) and digested with Rsa I. Genomic DNA was then treated with sodium bisulfite, following methods previously established. Briefly, 5 μg of digested DNA was denatured in NaOH, then treated with 4.0 M, pH 5.0 sodium metabisulfite for 16 hours at 55° C. Following desalting, DNA was desulfonated with NaOH, neutralized and precipitated with ammonium acetate and ethanol. DNA samples were resuspended in 30 μL, of 1 mM Tris buffer, pH 8.0. Sequence specific primers were generated to amplify the region of interest. PCR products were cloned into pGemT Easy vector (Promega Corporation) and sequenced. Approximately 35 clones from each PCR product were sequenced for analysis of methylation state of the CpG sites. Confirming altered methylation states involved comparisons of the sequence following the bisulfite treatment. The primers for the lysophospholipase PCR bisulfite analysis were 5′GGTATATATAGAGGAAGGTAGGTA GG3′ (SEQ ID NO:1) and 5′TAAAAACCTCCAAAAAACAAACAC T3′ (SEQ ID NO:2).
Bisulfite sequencing: Bisulfite sequencing was used to characterize the DNA methylation patterns and changes. Genomic DNA was isolated from control and vinclozolin F2 and F3 generation epididymal sperm using the DNeasy Tissue Kit. Genomic DNA (10 μg) was digested with RsaI then treated with bisulfite as described above for Example I. After purification, the bisulfite converted DNA was used as a template for PCR. The bisulfite primers for each candidate were designed using MethPrimer (www.urogene.org/methprimer) system (Li and Dahiya, 2002) and are listed in Table 2. The sequence specific primers were generated to amplify the CpG region of interest to characterize the methylation pattern. PCR conditions for amplification were as follows: 30 cycles followed by another 30 cycles with nested primers (30 s at 95° C., 45 s at 50° C., and 50 s at 72° C.) and then 5 min at 72° C. with modified 1× buffer [10×: 166 mM (NH4)2.SO4; 670 mM Tris pH 8.8; 67 mM MgCl2; 100 mM β-mercaptoethanol]. PCR products were cloned into pGEM-T easy vector (Promega) and sequenced using Big-Dye Terminator (Applied BioSystems). Approximately 50 different clones from each PCR product were sequenced to characterize the methylation state of the CpG sites identified. A mixture of a minimum of 3 different F2 or F3 generation control and vinclozolin animals were used to generate approximately 50 clones per candidate analyzed. Statistical differences between methylation states were determined with a Fisher's Exact Test.

[2] = test system: vinclozolin generation animals; settings: rat, in vivo
Excerpt: A number of the genes associated with the methylation changes identified have a relationship with various disease states, Table 3. […] Therefore, alterations in the epigenetic (DNA methylation) and/or expression of these genes is associated with a number of disease states. In addition to these correlations to previous literature, the vinclozolin generation animals develop a variety of disease states. Vinclozolin (F1-F4) generation animals between 6-12 months of age develop a variety of disease states or abnormalities, Table 4 [153]. Therefore, the vinclozolin generational animals used develop a variety of diseases, and have the altered epigenetic programming of the male germ-line. Combined observations indicate that the epigenetic alterations in the germ-line DNA and associated genes identified in this Example, are associated with a number of disease states, Tables 3 and 4.

[3] = test system: DNA isolated from P6 testis or epididymal sperm; assay: Methylation sensitive restriction enzyme PCR (MSRE-PCR) DNA methylation analysis; assay type: in vivo, rat
Experimental: DNA Methylation Assays: The methylation status of DNA, isolated from control and endocrine disruptor treated P6 testis, or epididymal sperm, used a combination of methylation sensitive restriction enzymes, and a PCR approach, previously described. Briefly, isolated genomic DNA was incubated and digested with RsaI, with either methylation sensitive (HpaII), or insensitive (MspI) restriction enzymes, followed by PCR, with 10 primer sets designed to amplify methylation sites. PCR products were electrophoretically separated, and visualized by Sybr green staining (Molecular Probes, Eugene, Oreg.), and effects of endocrine disruptors, were determined by the presence or absence of specific bands. The PCR products of interest were isolated, cloned and sequenced to determine chromosomal location by BLAST Genbank analysis. P6 testis analysis was repeated using 4 animals from different litters.
DNA methylation assay: The methylation state of the DNA isolated from CDF control and vinclozolin generation epididymal sperm was determined using a combination of methylation sensitive restriction enzymes and PCR procedures (MSRE-PCR) described above in Example I. Briefly, genomic DNA was isolated from sperm samples using the DNeasy Tissue Kit (Quiagen, Valencia, Calif.). Two micrograms each of control and vinclozolin generation sperm DNA were separately digested with RsaI and either methylation-sensitive enzyme HpaII or insensitive MspI enzymes, followed by PCR with specific primer sets (Table 1). PCR products were electrophoretically separated on polyacrylamide gels and visualized by ethidium bromide staining. The PCR products (i.e. bands) that were reproducibly absent or present between control and vinclozolin generation sperm DNA were excised from stained gels, re-amplified with the same PCR primer set, and then cloned and sequenced. The DNA sequence and chromosomal location were determined using the NCBI Rat genomic databank BLAST system.
Genomic DNA and Methylation Sensitive Restriction Enzyme PCR: Genomic DNA was isolated from the different control and vinclozolin F1-F3 generation epididymal sperm samples. A total of 1 μg of genomic DNA was digested using methylation-sensitive HpaII or AciI enzymes (37° C., 6-12 hr). The digested DNA was precipitated and dissolved in 30 μl of dH2O. Then, 3 μl aliquots were analyzed by PCR in 30 μl reactions with specific primers (Table 1), subjected to 25 cycles, and the PCR products electrophoretically separated on 1.5% agarose. The differences between the control and vinclozolin F1-F3 generation sperm samples were determined for selected genes found to have high optimal digestion capacity.

[4] = F2/F3 sperm DNA, one of 5 potential CpG sites
[5] = F2/F3 sperm DNA, one of 6 potential CpG sites

C=CC1(C)OC(=O)N(c2cc(Cl)cc(Cl)c2)C1=O (stereo not shown) [vinclozolin]
treated sperm DNA samples with bisulfite altered sequence of the lysophospholipase gene ([1]; CpG island of lysophospholipase gene): approximately 25% | methylation differences, Candidate #7 (Ankrd28/Galntl2) ([1]; F2/F3 sperm DNA): did not have any detectable differences | methylation differences, Candidate #21, 32 (LOC503205/NCAM1) ([1]; F2/F3 sperm DNA): no differences in methylation | methylation differences, Candidate #23 (LOC503150/snRP1c) ([1]; F2/F3 sperm DNA): no differences in methylation | methylation differences, Candidate #25 (Mup4/MUP) ([1]; F2/F3 sperm DNA): no differences in methylation | CpG hypermethylated to, Candidate #29 (Runx1/Awa1p) ([1]; F2/F3 sperm DNA, 1 of 6 potential CpG sites): 48% | CpG hypermethylated to, Candidate #14, 15 (Lrrn6a) ([1]; F2/F3 sperm DNA, 2 of 4 potential CpG): 27% | CpG hypermethylated to, Candidate #26 (Acaca) ([1]; F2/F3 sperm DNA, 2 of 5 potential CpG sites): 50% and 28% | CpG hypermethylated to, Candidate #33 (Six3/Six2) ([1]; F2/F3 sperm DNA, 2 of 6 potential CpG sites): 31% and 57% | CpG hypermethylated to, Candidate #27, 28 (zinc finger protein 212) ([1]; F2/F3 sperm DNA, 2 of 8 potential CpG sites): 45% and 48% | CpG hypermethylated to, Candidate #5, 6, 9 (FLJ22405 protein) ([1]; F2/F3 sperm DNA, 2 of 9 potential CpG): 50% and 35% | CpG hypermethylated to, Candidate #17, 18 (nicastrin/Copa) ([1]; F2/F3 sperm DNA, 2 of 20 potential CpG sites): 55% and 30% | CpG hypermethylated to, Candidate #13 (Nfix) ([1]; F2/F3 sperm DNA, 4 of 17 potential CpG sites): 50-60% | methylation differences, Candidate #4, 19 (Cacna1e) ([1]; F2/F3 sperm DNA, 6 potential CpG): did not have any detectable differences in methylation | CpG hypermethylated to, Candidate #31 (Waspip/LOC499811) ([1]; F2/F3 sperm DNA, one of 4 potential CpG sites): 42% | CpG hypermethylated to, Candidate #8 (liprin-α1/Fadd) [1, 4]: 65% | CpG hypermethylated to, Candidate #22 (tgolgin-1) [1, 4]: 67% | CpG hypermethylated to, Candidate #12 (similar to importin 7) [1, 5]: 51% | CpG hypermethylated to, Candidate #16 (optineurin) [1, 5]: 79% | H19 methylation (known imprinted gene, control) ([1]; control vs vinclozolin F2/F3 sperm DNA): No change | candidate DNA sequences confirmed to have specific hypermethylation ([1]; of the 25 candidates, F2/F3 sperm DNA): 15 | methylation change, Candidate #34 (RAB12) ([1]; partial region only): no change in methylation | Prevalence, Immune Abnormalities [2]: 27% | Prevalence, Kidney Disease [2]: 40% | Prevalence, Prostate Disease [2]: 50% | Prevalence, Testis Defect [2]: 30% | Prevalence, Tumor Development (e.g. breast) [2]: 17% | frequency at which generation animals develop disease states [2]: ~85% | gene specific MSRE-PCR products for candidates #1, #14, #17/18, #27/28 and #33 ([3]; F1, F2 and F3 generation sperm DNA): PCR products were observed in all the vinclozolin generation sperm DNA samples, but not in the controls | individual candidate DNA sequences with potential altered methylation sites ([3]; F3 generation sperm DNA): 25 | candidates with potential altered DNA methylation between control and vinclozolin sperm samples ([3]; F3 generation sperm, Fisher rats): 34 | different PCR products with apparent altered DNA methylation patterns ([3]; P6 testis, F1 males, Fisher rats, n=4): Approximately 25 | animals with altered clone 17 (cytokine-inducible SH2 STAT-like protein gene) methylation in epididymal sperm ([3]; out of 5 F3 animals): 2 animals | animals with altered clone 17 (cytokine-inducible SH2 STAT-like protein gene) methylation in epididymal sperm ([3]; out of 8 F2 animals): 4 animals
